Values after ≈ are worked out from the molar mass of the structure shown.
experiment: Compound solubility in water; format: physicochemical

SMILES | solubility
Cc1cc(-n2ccc(F)n2)nc2c(C(=O)N[C@H](C3CC3)C(F)(F)F)cnn12 [III-173] | 1.4 µg/mL (≈ 3.66 µM)
Cc1cc(-c2cccc(-c3ncccn3)n2)nc2c(C(=O)NC(C3CC3)C(F)(F)F)cnn12 (centres unmarked) [III-175] | 1 µg/mL (≈ 2.21 µM)
Cc1cc(-c2cccc(-c3ncon3)c2)nc2c(C(=O)NC(C3CC3)C(F)(F)F)cnn12 (centres unmarked) [III-176] | 0.2 µg/mL (≈ 0.452 µM)
Cc1cc(-c2cccc(-c3ncncn3)c2)nc2c(C(=O)NC(C3CC3)C(F)(F)F)cnn12 (centres unmarked) [III-177] | 0.2 µg/mL (≈ 0.441 µM)
Cc1cc(-c2ccns2)nc2c(C(=O)NC(C)C(F)(F)F)cnn12 (centres unmarked) [III-178] | 0.7 µg/mL (≈ 1.97 µM)
Cc1cc(N2CCCC(F)(F)C2)nc2c(C(=O)NC(C)C(F)(F)F)cnn12 (centres unmarked) [III-179] | 1.1 µg/mL (≈ 2.81 µM)
Cc1cc(N2CCC(F)(F)C2)nc2c(C(=O)NC(C)C(F)(F)F)cnn12 (centres unmarked) [III-180] | 4.8 µg/mL (≈ 12.7 µM)
Cc1cc(N2CCC(F)(F)CC2)nc2c(C(=O)NC(C)C(F)(F)F)cnn12 (centres unmarked) [III-181] | 4.5 µg/mL (≈ 11.5 µM)
Cc1cc(-c2cccc3c2OCO3)nc2c(C(=O)N[C@@H](C)C3CC3)cnn12 [III-182] | 0.2 µg/mL (≈ 0.549 µM)
Cc1cc(-c2cccc3c2OCO3)nc2c(C(=O)NC(C3CC3)C(F)(F)F)cnn12 (centres unmarked) [III-183] | 0.5 µg/mL (≈ 1.2 µM)
Cc1cc(C)n2ncc(C(=O)NC(c3ccc(F)cc3)C(F)(F)F)c2n1 (centres unmarked) [III-184] | 1.1 µg/mL (≈ 3 µM)
Cc1cc(-c2ccc(C#N)o2)nc2c(C(=O)NC(C3CC3)C(F)(F)F)cnn12 (centres unmarked) [III-185] | 6.3 µg/mL (≈ 16.2 µM)
Cc1cc(-c2ccco2)nc2c(C(=O)NC(C3CC3)C(F)(F)F)cnn12 (centres unmarked) [III-186] | 0.6 µg/mL (≈ 1.65 µM)
Cc1cc(-c2ccoc2)nc2c(C(=O)NC(C3CC3)C(F)(F)F)cnn12 (centres unmarked) [III-187] | 0.5 µg/mL (≈ 1.37 µM)
Cc1cc(-c2cscc2C#N)nc2c(C(=O)NC(C3CC3)C(F)(F)F)cnn12 (centres unmarked) [III-188] | 0.3 µg/mL (≈ 0.74 µM)
Cc1cc(-c2sccc2C#N)nc2c(C(=O)NC(C3CC3)C(F)(F)F)cnn12 (centres unmarked) [III-189] | 5.1 µg/mL (≈ 12.6 µM)
Cc1cc(C)n2ncc(C(=O)N[C@H]3CC[C@H](OC(C)(C)C)CC3)c2n1 [III-190] | 8.9 µg/mL (≈ 25.8 µM)
Cc1cc(C)n2ncc(C(=O)N[C@H]3CC[C@H](OCC(C)C)CC3)c2n1 [III-191] | 26.3 µg/mL (≈ 76.4 µM)
Cc1cc(-c2ccc3scnc3c2)nc2c(C(=O)N[C@@H](C)C3CC3)cnn12 [III-192] | 0.2 µg/mL (≈ 0.53 µM)
COc1ccc(F)cc1-c1cc(C)n2ncc(C(=O)NC(C)C(F)(F)F)c2n1 (centres unmarked) [III-194] | 0.4 µg/mL (≈ 1.01 µM)
COc1ccc(F)cc1-c1cc(C)n2ncc(C(=O)N[C@H](C)C(F)(F)F)c2n1 [III-195] | 0.01 µg/mL (≈ 0.0252 µM)
Cc1cc(-c2ccns2)nc2c(C(=O)N[C@@H](C)C3CC3)cnn12 [III-197] | 6.5 µg/mL (≈ 19.9 µM)
Cc1cc(-c2cnccc2F)nc2c(C(=O)NC(C)C(F)(F)F)cnn12 (centres unmarked) [III-199] | 7.8 µg/mL (≈ 21.2 µM)
Cc1cc(-c2cncc(Cl)c2)nc2c(C(=O)NC(C)C(F)(F)F)cnn12 (centres unmarked) [III-200] | 1 µg/mL (≈ 2.61 µM)
Cc1cc(-c2cncc(Cl)c2)nc2c(C(=O)N[C@H](C)C(F)(F)F)cnn12 [III-201] | 3.1 µg/mL (≈ 8.08 µM)
Cc1cc(-c2cncc(Cl)c2)nc2c(C(=O)N[C@@H](C)C(F)(F)F)cnn12 [III-202] | 2.5 µg/mL (≈ 6.51 µM)

SMILES | solubility
Cc1cc(-c2ncccc2F)nc2c(C(=O)NC(C3CC3)C(F)(F)F)cnn12 (centres unmarked) [III-203] | 0.07 µg/mL (≈ 0.178 µM)
Cc1cc(-c2ccc(F)cn2)nc2c(C(=O)NC(C3CC3)C(F)(F)F)cnn12 (centres unmarked) [III-204] | 0.1 µg/mL (≈ 0.254 µM)
Cc1cc(-c2cc(F)ccn2)nc2c(C(=O)NC(C3CC3)C(F)(F)F)cnn12 (centres unmarked) [III-205] | 0.1 µg/mL (≈ 0.254 µM)
Cc1cc(-c2ncccc2Cl)nc2c(C(=O)NC(C3CC3)C(F)(F)F)cnn12 (centres unmarked) [III-206] | 2.1 µg/mL (≈ 5.12 µM)
Cc1cc(-c2cc(Cl)ccn2)nc2c(C(=O)NC(C3CC3)C(F)(F)F)cnn12 (centres unmarked) [III-207] | 0.6 µg/mL (≈ 1.46 µM)
Cc1cc(-c2ccc(Cl)cn2)nc2c(C(=O)NC(C3CC3)C(F)(F)F)cnn12 (centres unmarked) [III-208] | 0.04 µg/mL (≈ 0.0976 µM)
Cc1cc(-c2nccs2)nc2c(C(=O)NC(C3CC3)C(F)(F)F)cnn12 (centres unmarked) [III-209] | 1.2 µg/mL (≈ 3.15 µM)
Cc1cc(-c2ccc3c(c2)OCO3)nc2c(C(=O)N[C@@H](C)C3CC3)cnn12 [III-210] | 2.4 µg/mL (≈ 6.59 µM)
Cc1cc(-c2ccccc2C#N)nc2c(C(=O)NC(C3CC3)C(F)(F)F)cnn12 (centres unmarked) [III-211] | 0.2 µg/mL (≈ 0.501 µM)
Cc1cc(-c2ccccc2C#N)nc2c(C(=O)N[C@H](C)C(F)(F)F)cnn12 [III-212] | 0.7 µg/mL (≈ 1.87 µM)
Cc1cc(-c2ccccc2C#N)nc2c(C(=O)N[C@@H](C)C(F)(F)F)cnn12 [III-213] | 0.6 µg/mL (≈ 1.61 µM)
Cc1cc(-c2cc(C)n3ncc(C(=O)NC(C4CC4)C(F)(F)F)c3n2)sn1 (centres unmarked) [III-214] | 2.3 µg/mL (≈ 5.82 µM)
Cc1cc(-c2cc(C)n3ncc(C(=O)N[C@H](C4CC4)C(F)(F)F)c3n2)sn1 [III-215] | 0.3 µg/mL (≈ 0.759 µM)
Cc1cc(-c2cc(C)n3ncc(C(=O)N[C@@H](C4CC4)C(F)(F)F)c3n2)sn1 [III-216] | 0.9 µg/mL (≈ 2.28 µM)
Cc1cc(-c2cccc3ncoc23)nc2c(C(=O)N[C@@H](C)C3CC3)cnn12 [III-217] | 3.2 µg/mL (≈ 8.85 µM)
Cc1cc(-c2cccc3ncoc23)nc2c(C(=O)NC(C)(C)C(F)(F)F)cnn12 [III-219] | 2.7 µg/mL (≈ 6.69 µM)
Cc1cc(-c2ccc3scnc3c2)nc2c(C(=O)NC(C)C(F)(F)F)cnn12 (centres unmarked) [III-220] | 0.1 µg/mL (≈ 0.247 µM)
Cc1cc(-c2cccc3ncsc23)nc2c(C(=O)NC(C)C(F)(F)F)cnn12 (centres unmarked) [III-221] | 0.2 µg/mL (≈ 0.493 µM)
Cc1cc(-c2cccc3ncsc23)nc2c(C(=O)N[C@@H](C)C3CC3)cnn12 [III-222] | 0.6 µg/mL (≈ 1.59 µM)
Cc1cc(-c2cccc3ncoc23)nc2c(C(=O)NC(C)(C)C3CC3)cnn12 [III-223] | 0.2 µg/mL (≈ 0.533 µM)
CCc1cc(N2CCN(C(C)C)C2=O)nc2c(C(=O)NC(C3CC3)C(F)(F)F)cnn12 (centres unmarked) [III-224] | 1.2 µg/mL (≈ 2.74 µM)
Cc1cc(N2CCN(C(C)C)C2=O)nc2c(C(=O)NC(C3CC3)C(F)(F)F)cnn12 (centres unmarked) [III-225] | 19.3 µg/mL (≈ 45.5 µM)
CCc1cc(N2CCN(C(C)C)C2=O)nc2c(C(=O)NC(C)C(F)(F)F)cnn12 (centres unmarked) [III-226] | 5.9 µg/mL (≈ 14.3 µM)
Cc1cc(N2CCN(C(C)C)C2=O)nc2c(C(=O)NC(C)C(F)(F)F)cnn12 (centres unmarked) [III-227] | 9.4 µg/mL (≈ 23.6 µM)
Cc1cc(N2CCNC2=O)nc2c(C(=O)NC(C3CC3)C(F)(F)F)cnn12 (centres unmarked) [III-228] | 2.4 µg/mL (≈ 6.28 µM)
CCc1cc(N2CCN(C(C)C)C2=O)nc2c(C(=O)NC(C)(C)C)cnn12 [III-229] | 13.5 µg/mL (≈ 36.2 µM)

SMILES | solubility
Cc1cc(N2CCN(C(C)C)C2=O)nc2c(C(=O)NC(C)(C)C3CC3)cnn12 [III-230] | 2.6 µg/mL (≈ 6.76 µM)
Cc1cc(N2CCN(C(C)C)C2=O)nc2c(C(=O)NC(C)(C)C(F)(F)F)cnn12 [III-231] | 3 µg/mL (≈ 7.27 µM)
Cc1cc(N2CCN(C(C)C)C2=O)nc2c(C(=O)NC(C)(C)C)cnn12 [III-232] | 23.7 µg/mL (≈ 66.1 µM)
Cc1cc(N2CCN(CC(F)(F)F)C2=O)nc2c(C(=O)NC(C3CC3)C(F)(F)F)cnn12 (centres unmarked) [III-233] | 0.7 µg/mL (≈ 1.51 µM)
Cc1cc(-c2cccc(Cl)n2)nc2c(C(=O)NC(C)C(F)(F)F)cnn12 (centres unmarked) [III-234] | 0.2 µg/mL (≈ 0.521 µM)
Cc1cc(-c2cccc(Cl)n2)nc2c(C(=O)N[C@H](C)C(F)(F)F)cnn12 [III-235] | 6.4 µg/mL (≈ 16.7 µM)
Cc1cc(-c2cccc(Cl)n2)nc2c(C(=O)N[C@@H](C)C(F)(F)F)cnn12 [III-236] | 5.9 µg/mL (≈ 15.4 µM)
Cc1cc(-c2cccc(Cl)n2)nc2c(C(=O)NC(C3CC3)C(F)(F)F)cnn12 (centres unmarked) [III-237] | 0.05 µg/mL (≈ 0.122 µM)
CCc1cc(N2CCOCC2)nc2c(C(=O)NC(C3CC3)C(F)(F)F)cnn12 (centres unmarked) [III-238] | 13.5 µg/mL (≈ 34 µM)
Cc1cc(-c2ccon2)nc2c(C(=O)NC(C3CC3)C(F)(F)F)cnn12 (centres unmarked) [III-239] | 0.8 µg/mL (≈ 2.19 µM)
Cc1oc(C#N)cc1-c1cc(C)n2ncc(C(=O)NC(C3CC3)C(F)(F)F)c2n1 (centres unmarked) [III-242] | 3.2 µg/mL (≈ 7.93 µM)
Cc1cc(C#N)c(-c2cc(C)n3ncc(C(=O)NC(C4CC4)C(F)(F)F)c3n2)o1 (centres unmarked) [III-245] | 0.008 µg/mL (≈ 0.0198 µM)
Cc1ncc(-c2cc(C)n3ncc(C(=O)NC(C4CC4)C(F)(F)F)c3n2)o1 (centres unmarked) [III-246] | 3.1 µg/mL (≈ 8.17 µM)
Cc1ncc(-c2cc(C)n3ncc(C(=O)N[C@H](C4CC4)C(F)(F)F)c3n2)o1 [III-247] | 0.6 µg/mL (≈ 1.58 µM)
Cc1ncc(-c2cc(C)n3ncc(C(=O)N[C@@H](C4CC4)C(F)(F)F)c3n2)o1 [III-248] | 0.7 µg/mL (≈ 1.85 µM)
Cc1nc(-c2cc(C)n3ncc(C(=O)NC(C4CC4)C(F)(F)F)c3n2)co1 (centres unmarked) [III-249] | 0.6 µg/mL (≈ 1.58 µM)
Cc1cc(-c2occc2C#N)nc2c(C(=O)NC(C3CC3)C(F)(F)F)cnn12 (centres unmarked) [III-250] | 0.4 µg/mL (≈ 1.03 µM)
Cc1nc(-c2cc(C)n3ncc(C(=O)NC(C)(C)C4CC4)c3n2)co1 [III-251] | 3.9 µg/mL (≈ 11.5 µM)
Cc1ncc(-c2cc(C)n3ncc(C(=O)NC(C)(C)C4CC4)c3n2)o1 [III-252] | 11 µg/mL (≈ 32.4 µM)
Cc1cnc(-c2cc(C)n3ncc(C(=O)NC(C4CC4)C(F)(F)F)c3n2)o1 (centres unmarked) [III-253] | 0.7 µg/mL (≈ 1.85 µM)
Cc1coc(-c2cc(C)n3ncc(C(=O)NC(C4CC4)C(F)(F)F)c3n2)n1 (centres unmarked) [III-254] | 0.6 µg/mL (≈ 1.58 µM)
Cc1coc(-c2cc(C)n3ncc(C(=O)N[C@H](C4CC4)C(F)(F)F)c3n2)n1 [III-255] | 1.6 µg/mL (≈ 4.22 µM)
Cc1coc(-c2cc(C)n3ncc(C(=O)N[C@@H](C4CC4)C(F)(F)F)c3n2)n1 [III-256] | 0.5 µg/mL (≈ 1.32 µM)
Cc1cc(N2CCCN(C(C)C)C2=O)nc2c(C(=O)NC(C3CC3)C(F)(F)F)cnn12 (centres unmarked) [III-257] | 11.6 µg/mL (≈ 26.5 µM)
Cc1cc(N2CCCN(C(C)C)C2=O)nc2c(C(=O)NC(C)(C)C)cnn12 [III-258] | 26.4 µg/mL (≈ 70.9 µM)

— US9840510B1, “Pyrazolo[1,5-a]pyrimidinyl carboxamide compounds and their use in the treatment of medical disorders” (Lysosomal Therapeutics Inc., priority 2016, dated 2017)
